System: rat small-intestinal brush border membrane vesicles
Test: Inhibitory effect on 33PO4 uptake into rat small-intestinal brush border membrane vesicles (rapid filtration method)
Assay type: biochemical
Conditions: 33PO4 uptake into rat small-intestinal BBMVs; test compound 1 µM; reacted for 60 seconds
Description: Brush border membrane vesicles (BBMVs) were prepared using the upper region of the small intestine of each Wistar female rat (4-5 weeks old). […] The ^33PO4 transport activity of the small-intestinal BBMVs was determined by the rapid filtration method. […] Then, ice-cold buffer C (110 mM NaCl, 1 mM KH2PO4, and 10 mM HEPES (pH 7.5)) was added to each reaction mixture, which was immediately suctionfiltered through a Millipore filter. The filter was washed with buffer C, and each sample was then dissolved in a liquid scintillator. The amount of ^33PO4 uptake into BBMVs was measured using a liquid scintillation counter. […]

SMILES | Rate of uptake inhibition (%) (1 µM)
C[C@]12CCCN1N(Cc1cccc(F)c1F)C(=O)C(C(=O)Nc1ccc(C(F)(F)F)cc1-c1ccc(C(F)(F)F)nc1)=C2O [Example 90] | 91
C[C@]12CCCN1N(Cc1cccc(F)c1F)C(=O)C(C(=O)Nc1ccc(C(F)(F)F)cc1-c1cncc(C(F)(F)F)c1)=C2O [Example 91] | 87
COCCOc1cc(NC(=O)C2=C(O)[C@@]3(C)CCCN3N(Cc3cccc(F)c3F)C2=O)c(-c2cccc(OC)c2OC)cc1C(F)(F)F [Example 92] | 81
COc1cccc(-c2cc(C(F)(F)F)ccc2NC(=O)C2=C(O)[C@@]3(C)CCCN3N(Cc3cccc(F)c3F)C2=O)n1 [Example 93] | 56
C[C@]12CCCN1N(Cc1cccc(F)c1F)C(=O)C(C(=O)Nc1ccc(C(F)(F)F)cc1-c1cnc(C#N)c([N+](=O)[O-])c1)=C2O [Example 99, (4aR)-N-[2-(6-Cyano-5-nitropyridin-3-yl)-4-(trifluoromethyl)phenyl]-1-[(2,3-difluorophenyl)methyl]-4-hydroxy-4a-methyl-2-oxo-6,7-dihydro-5H-pyrrolo[1,2-b]pyridazine-3-carboxamide] | 82
C[C@]12CCCN1N(Cc1cccc(F)c1F)C(=O)C(C(=O)Nc1ccc(C(F)(F)F)cc1-c1cc(C#N)ncn1)=C2O [Example 100] | 69
Cc1cc(-c2cc(C(F)(F)F)ccc2NC(=O)C2=C(O)[C@@]3(C)CCCN3N(Cc3cccc(F)c3F)C2=O)cnc1C#N [Example 101] | 57
C[C@]12CCCN1N(Cc1ccc(OCCN3CCOCC3)c(F)c1F)C(=O)C(C(=O)Nc1ccc(Cl)cc1-c1ccc(C(F)(F)F)nc1)=C2O [Example 102] | 65
CSc1ccc(-c2cc(C(F)(F)F)ccc2NC(=O)C2=C(O)[C@@]3(C)CCCN3N(Cc3ccc(OCCN4CCOCC4)c(F)c3F)C2=O)cn1 [Example 103] | 78
CSc1ncc(-c2cc(C(F)(F)F)ccc2NC(=O)C2=C(O)[C@@]3(C)CCCN3N(Cc3ccc(OCCN4CCOCC4)c(F)c3F)C2=O)cn1 [Example 104] | 73
CSc1ccc(-c2nc(C(F)(F)F)ccc2NC(=O)C2=C(O)[C@@]3(C)CCCN3N(Cc3cccc(F)c3F)C2=O)cn1 [Example 105] | 72
C[C@]12CCCN1N(Cc1ccc(OCCN3CCOCC3)c(F)c1F)C(=O)C(C(=O)Nc1ccc(C(F)(F)F)nc1-c1cncc(C(F)(F)F)c1)=C2O [Example 106] | 79
C[C@@]12CCCN1N(Cc1ccc(OCCN3CCOCC3)c(F)c1F)C(=O)C(C(=O)Nc1ccc(Cl)cc1-c1cc(C(F)(F)F)ncn1)=C2O.Cl [Example 107] | 54
C[C@@]12CCCN1N(Cc1ccc(OCCN3CCOCC3)c(F)c1F)C(=O)C(C(=O)Nc1ccc(C(F)(F)F)cc1-c1cc(C(F)(F)F)ncn1)=C2O.Cl [Example 108] | 54
Cc1ncc(-c2cc(C(F)(F)F)ccc2NC(=O)C2=C(O)[C@@]3(C)CCCN3N(Cc3cccc(F)c3F)C2=O)cc1C#N [Example 109, (4aR)-N-[2-(5-Cyano-6-methylpyridin-3-yl)-4-(trifluoromethyl)phenyl]-1-[(2,3-difluorophenyl)methyl]-4-hydroxy-4-methyl-2-oxo-6,7-dihydro-5H-pyrrolo[1.2-b]pyridazine-3-carboxamide] | 52
CN(C)S(=O)(=O)N1CCC(c2cc(C(F)(F)F)ccc2NC(=O)C2=C(O)[C@@]3(C)CCCN3N(Cc3cccc(F)c3F)C2=O)CC1 [Example 110] | 57
C[C@]12CCCN1N(Cc1cccc(F)c1F)C(=O)C(C(=O)Nc1ccc(C(F)(F)F)cc1-c1cnc(N3CC4(COC4)C3)c(C#N)c1)=C2O [Example 111, (4aR)-N-[2-[5-Cyano-6-(2-oxa-6-azaspiro[3.3]heptan-6-yl)pyridin-3-yl]-4-(trifluoromethyl)phenyl]-1-[(2,3-difluorophenyl)methyl]-4-hydroxy-4a-methyl-2-oxo-6.7-dihydro-5H-pyrrolo[1,2-b]pyridazine-3-carboxamide] | 56
COC(=O)CN(C)c1ncc(-c2cc(C(F)(F)F)ccc2NC(=O)C2=C(O)[C@@]3(C)CCCN3N(Cc3cccc(F)c3F)C2=O)cc1C#N [Example 112, Methyl 2-[[5-[2-[[(4aR)-1-[(2,3-difluorophenyl)methyl]-4-hydroxy-4a-methyl-2-oxo-6,7-dihydro-5H-pyrrolo[1,2-b]pyridazine-3-carbonyl]aminol-5-(trifluoromethyl)phenyl]-3-cyanopyridin-2-yl-methylamino] acetate] | 43
CSc1cc(-c2cc(C(F)(F)F)ccc2NC(=O)C2=C(O)[C@@]3(C)CCCN3N(Cc3cccc(F)c3F)C2=O)cnc1C#N [Example 113, (4aR)-N-[2-(6-Cyano-5-methylsulfanylpyridin-3-yl)-4-(trifluoromethyl)phenyl]-1-[(2,3-difluorophenyl)methyl]-4-hydroxy-4a-methyl-2-oxo-6,7-dihydro-5H-pyrrolo[1,2-b]pyridazine-3-carboxamide] | 84
CSc1ccc(-c2cc(C(F)(F)F)ccc2NC(=O)C2=C(O)[C@@]3(C)CCCN3N(Cc3ccc(CCCCCCC(=O)O)c(F)c3F)C2=O)cn1 [Example 115, 7-[4-[[(4aR)-4-1-Hydroxy-4a-methyl-3-[[2-(6-methylsulfanylpyridin-3-yl)-4-(trifluoromethyl)phenyl]carbamoyl]-2-oxo-6,7-dihydro-5H-pyrrolo[1,2-b]pyridazin-1-yl]methyl]-2,3-difluorophenyl]heptanoate] | 85
C[C@]12CCCN1N(Cc1ccc(CCCCCCC(=O)O)c(F)c1F)C(=O)C(C(=O)Nc1ccc(Cl)cc1-c1ccc(C(F)(F)F)nc1)=C2O [Example 116, 7-[4-[[(4aR)-3-[[4-Chloro-2-[6-(trifluoromethyl)pyridin-3-yl]phenyl]carbarnoyl]-4-hydroxy-4a-methyl-2-oxo-6,7-dihydro-5H-pyrrolo[1,2-b]pyridazin-1-yl]methyl]-2,3-difluorophenyl]heptanoate] | 72
CSc1ccc(-c2cc(C(F)(F)F)ccc2NC(=O)C2=C(O)[C@@]3(C)CCCN3N(Cc3ccc(C#CCCCCC(=O)O)c(F)c3F)C2=O)cn1 [Example 117, 7-[4-[[(4aR)-4-Hydroxy-4a-methyl-3-[[2-(6-methylsulfanylpyridin-3-yl)-4-(trifluoromethyl)phenyl]carbamoyl]-2-oxo-6.7-dihydro-5H-pyrrolo[1.2-b]pyridazin-1-yl]methyl]-2,3-difluorophenyl]hept-6-ynoate] | 78
CSc1ncc(-c2cc(C(F)(F)F)ccc2NC(=O)C2=C(O)[C@@]3(C)CCCN3N(Cc3ccc(C#CCCCCC(=O)O)c(F)c3F)C2=O)cn1 [Example 118] | 81
C[C@]12CCCN1N(Cc1ccc(C#CCCCCC(=O)O)c(F)c1F)C(=O)C(C(=O)Nc1ccc(C(F)(F)F)cc1-c1cncc(C(F)(F)F)c1)=C2O [Example 119, 7-[4-[[(4aR)-4-Hydroxy-4a-methyl-2-oxo-3-[[4-(trifluoromethyl)-2-[5-(trifluoromethyl)pyridin-3-yl]phenyl]carbamoyl]-6.7-dihydro-5H-pyrrolo[1,2-b]pyridazin-1-yl]methyl]-2.3-difluorophenyl]hept-6-ynoate] | 71
CSc1ccc(-c2cc(C(F)(F)F)ccc2NC(=O)C2=C(O)[C@@]3(C)CCCN3N(Cc3ccc(OCCCCOC[C@H](O)CO)c(F)c3F)C2=O)cn1 [Example 120, (4aR)-1-[[4-[4-[(2R)-2,3-Dihydroxypropoxy]butoxy]-2,3-difluorophenyl]methyl]-4-hydroxy-4a-methyl-N-[2-(6-methylsulfanylpyridin-3-yl)-4-(trifluoromethyl)phenyl]-2-oxo-6,7-dihydro-5H-pyrrolo[1,2-b]pyridazine-3-carboxamide] | 66
C[C@]12CCCN1N(Cc1ccc(OCCCCOC[C@H](O)CO)c(F)c1F)C(=O)C(C(=O)Nc1ccc(Cl)cc1-c1ccc(C(F)(F)F)nc1)=C2O [Example 121, (4aR)-N-[4-Chloro-2-[6-(trifluoromethyl)pyridin-3-yl]phenyl]-1-[[4-[4-[(2R)-2,3-dihydroxypropoxy]butoxy]-2,3-difluorophenyl]methyl]-4-hydroxy-4a-methyl-2-oxo-6,7-dihydro-5H-pyrrolo[1,2-b]pyridazine-3-carboxamide] | 72
C[C@]12CCCN1N(Cc1cccc(F)c1F)C(=O)C(C(=O)Nc1ccc(Br)cc1-c1ccc(Cl)nc1)=C2O [Example 122, (4aR)-N-[4-Bromo-2-(6-chloropyridin-3-yl)phenyl]-1-[(2,3-difluorophenyl)methyl]-4-hydroxy-4a-methyl-2-oxo-6,7-dihydro-5H-pyrrolo[1,2-b]pyridazine-3-carboxamide] | 82
COc1cccc(-c2cc(C(F)(F)F)ccc2NC(=O)C2=C(O)[C@@]3(C)CCCN3N(Cc3ccc(C#CCOCCCCO)c(F)c3F)C2=O)c1OC [Example 123, (4aR)-1-[[2,3-Difluoro-4-[3-(4-hydroxybutoxy)prop-1-ynil]phenyl]methyl)-N-[2-(2.3-dimethoxyphenyl)-4-(trifluoromethyl)phenyl]-4-hydroxy-4a-methyl-2-oxo-6,7-dihydro-5H-pyrrolo[1,2-b]pyridazine-3-carboxamide] | 87
C[C@]12CCCN1N(Cc1c(F)cc(C#CCCCCCOC[C@H](O)[C@@H](O)CO)cc1F)C(=O)C(C(=O)Nc1ccc(C(F)(F)F)cc1-c1ccc(C(F)(F)F)nc1)=C2O [Example 124] | 81

— patent EP3928779A1 (Chugai Seiyaku Kabushiki Kaisha, priority 2014, dated 2016)
